This note sets out measurements from ChEMBL document CHEMBL1909639, “Synthesis, stereochemistry and in vitro antimicrobial evaluation of novel 2-[(2,4-diaryl-3-azabicyclo[3.3.1]nonan-9-ylidene)hydrazono]-4-phenyl-2,3-dihydrothiazoles” (2011).

Test [1] has as its system Candida albicans. Nature of the test: Antifungal activity against Candida albicans ATCC 3122 by twofold serial dilution method. Type of test: functional.
Test [2] relates to Cryptococcus neoformans. Nature of the test: Antifungal activity against Cryptococcus neoformans ATCC 3312 after 72 to 96 hrs by twofold serial dilution method. Type of test: functional.
For test [3], the system named is Escherichia coli. The experiment in a line: Antibacterial activity against Escherichia coli ATCC 25835 after 24 hrs by twofold serial dilution method. Type of test: functional. The note with it: ATCC 25835, 24 h.
In test [4] the test system is Staphylococcus aureus. Nature of the test: Antibacterial activity against Staphylococcus aureus ATCC 25825 after 24 hrs by twofold serial dilution method. Type of test: functional. As to conditions: ATCC 25825, 24 h.
The test system of test [5] is Bacillus subtilis. Nature of the test: Antibacterial activity against Bacillus subtilis ATCC 451 after 24 hrs by twofold serial dilution method. Type of test: functional. The note with it: ATCC 451, 24 h.
In test [6] the test system is Aspergillus niger. The experiment in a line: Antifungal activity against Aspergillus niger ATCC 598 after 72 to 96 hrs by twofold serial dilution method. Type of test: functional.
Test [7] deals with Salmonella typhi. Nature of the test: Antibacterial activity against Salmonella typhi ATCC 24915 after 24 hrs by twofold serial dilution method. Type of test: functional, Salmonella enterica subsp. enterica serovar Typhi. As to conditions: Salmonella enterica, ATCC 24915, 24 h.
The subject of test [8] is Klebsiella pneumoniae. The experiment in a line: Antibacterial activity against Klebsiella pneumoniae ATCC 15490 at 200 ug/mL after 24 hrs by twofold serial dilution method. Type of test: functional, organism-based.
Test [9] deals with Rhizopus. The experiment in a line: Antifungal activity against Rhizopus sp. ATCC 2915 after 72 to 96 hrs by twofold serial dilution method. Type of test: functional.
Test [10] concerns Aspergillus flavus. Nature of the test: Antifungal activity against Aspergillus flavus ATCC 485 after 72 to 96 hrs by twofold serial dilution method. Type of test: functional.
Test [11] deals with Klebsiella pneumoniae. Nature of the test: Antibacterial activity against Klebsiella pneumoniae ATCC 15490 after 24 hrs by twofold serial dilution method. Type of test: functional. The note with it: ATCC 15490, 24 h.
Test [12] relates to Rhizopus. The experiment in a line: Antifungal activity against Rhizopus sp. ATCC 2915 at 200 ug/mL after 72 to 96 hrs by twofold serial dilution method. Type of test: functional, organism-based.
Test [13] concerns Bacillus subtilis. The experiment in a line: Antibacterial activity against Bacillus subtilis ATCC 451 at 200 ug/mL after 24 hrs by twofold serial dilution method. Type of test: functional, organism-based.
The test system of test [14] is Aspergillus flavus. Nature of the test: Antifungal activity against Aspergillus flavus ATCC 485 at 200 ug/mL after 72 to 96 hrs by twofold serial dilution method. Type of test: functional, organism-based.
Test [15] has as its system Escherichia coli. The experiment in a line: Antibacterial activity against Escherichia coli ATCC 25835 at 200 ug/mL after 24 hrs by twofold serial dilution method. Type of test: functional, organism-based.
Test [16] relates to Salmonella typhi. Nature of the test: Antibacterial activity against Salmonella typhi ATCC 24915 at 200 ug/mL after 24 hrs by twofold serial dilution method. Type of test: functional, organism-based. As to conditions: Salmonella enterica subsp. enterica serovar Typhi.
In test [17] the test system is Escherichia coli. Nature of the test: Ratio of compound MIC over streptomycin MIC for Escherichia coli ATCC 25835. Type of test: functional.
Test [18] has as its system Cryptococcus neoformans. The experiment in a line: Antifungal activity against Cryptococcus neoformans ATCC 3312 at 200 ug/mL after 72 to 96 hrs by twofold serial dilution method. Type of test: functional, organism-based.

Each structure is given as a SMILES string. Converted amounts (≈) assume the structure as drawn. The source made the active and inactive calls. The calls are words filed in the database; no cut-off is given here.

Usually MIC stands for the lowest concentration found to suppress growth. Read a low MIC as a more susceptible organism. For the compound `Clc1ccc([C@H]2N[C@@H](c3ccc(Cl)cc3)C3CCCC2/C3=N/N=c2\scc(-c3ccccc3)n2-c2ccccc2)cc1`, the MIC was determined as 100 µg/mL (≈ 164 µM) in [1]; 50 µg/mL (≈ 82 µM) in [2]; 100 µg/mL (≈ 164 µM) in test [3]; 25 µg/mL (≈ 41 µM) in test [4]; 12.5 µg/mL (≈ 20.5 µM) in [5]; 25 µg/mL (≈ 41 µM) in [6]. Further, the MIC in test [7] is 25 µg/mL (≈ 41 µM); in test [9], 6.25 µg/mL (≈ 10.3 µM); in [10] it was 100 µg/mL (≈ 164 µM). Moreover, in test [8], the outcome was inactive.
As for `Fc1cccc([C@H]2N[C@@H](c3cccc(F)c3)C3CCCC2/C3=N/N=c2\scc(-c3ccccc3)n2-c2ccccc2)c1`, the minimal inhibitory concentration (MIC) worked out at 12.5 µg/mL (≈ 21.7 µM) in test [1]; 200 µg/mL (≈ 347 µM) in test [2]; 12.5 µg/mL (≈ 21.7 µM) in test [3]; 50 µg/mL (≈ 86.7 µM) in test [4]; 100 µg/mL (≈ 173 µM) in test [5]; 25 µg/mL (≈ 43.3 µM) in test [6]. Further, the minimum inhibitory concentration (MIC) came to 12.5 µg/mL (≈ 21.7 µM) in test [7], 100 µg/mL (≈ 173 µM) in test [11], 100 µg/mL (≈ 173 µM) in test [9] and 200 µg/mL (≈ 347 µM) in test [10].
Take `Clc1ccc([C@H]2N[C@@H](c3ccc(Cl)cc3)C3CCCC2/C3=N/N=c2/[nH]c(-c3ccccc3)cs2)cc1`: the MIC came out at 200 µg/mL (≈ 375 µM) in [1]; 200 µg/mL (≈ 375 µM) in test [2]; 100 µg/mL (≈ 187 µM) in test [3]; 25 µg/mL (≈ 46.9 µM) in [4]; 25 µg/mL (≈ 46.9 µM) in test [5]; 25 µg/mL (≈ 46.9 µM) in test [6]. In addition, the MIC in test [7] is 50 µg/mL (≈ 93.7 µM); in [11], 100 µg/mL (≈ 187 µM); in [9] it was 50 µg/mL (≈ 93.7 µM); in test [10] it was 25 µg/mL (≈ 46.9 µM).
For the compound `Fc1cccc([C@H]2N[C@@H](c3cccc(F)c3)C3CCCC2/C3=N/N=c2/[nH]c(-c3ccccc3)cs2)c1`, the MIC in test [1] was 100 µg/mL (≈ 200 µM); in [2], 50 µg/mL (≈ 99.9 µM); in test [3] it was 25 µg/mL (≈ 49.9 µM); in test [4], 12.5 µg/mL (≈ 25 µM); in test [6] it was 200 µg/mL (≈ 400 µM); in test [7], 200 µg/mL (≈ 400 µM). Besides, the minimal inhibitory concentration (MIC) in test [11] worked out at 25 µg/mL (≈ 49.9 µM); in test [10], 100 µg/mL (≈ 200 µM). Also, the result in test [12] and in test [13] was inactive.
With `c1ccc(-c2cs/c(=N\N=C3\C4CCCC3[C@H](c3ccccc3)N[C@@H]4c3ccccc3)n2-c2ccccc2)cc1`, the MIC was found to be 12.5 µg/mL (≈ 23.1 µM) in test [1]; 50 µg/mL (≈ 92.5 µM) in [2]; 200 µg/mL (≈ 370 µM) in test [3]; 25 µg/mL (≈ 46.2 µM) in [4]; 100 µg/mL (≈ 185 µM) in test [5]; 200 µg/mL (≈ 370 µM) in test [6]. Also, the minimum inhibitory concentration (MIC) in test [7] is 100 µg/mL (≈ 185 µM); in test [9], 200 µg/mL (≈ 370 µM); in test [10], 100 µg/mL (≈ 185 µM). Moreover, the outcome in test [8] was inactive.
For `c1ccc(-c2cs/c(=N\N=C3\C4CCCC3[C@H](c3ccccc3)N[C@@H]4c3ccccc3)[nH]2)cc1`, the result in test [14] and in test [15] was inactive. The MIC in test [1] was 200 µg/mL (≈ 430 µM); in [2] it was 100 µg/mL (≈ 215 µM); in [4] it was 25 µg/mL (≈ 53.8 µM); in test [5], 200 µg/mL (≈ 430 µM); in [6] it was 50 µg/mL (≈ 108 µM); in [7], 100 µg/mL (≈ 215 µM). The minimum inhibitory concentration (MIC) in test [11] was 100 µg/mL (≈ 215 µM); in test [9], 200 µg/mL (≈ 430 µM).
Turning to `COc1ccc([C@H]2N[C@@H](c3ccc(OC)cc3)C3CCCC2/C3=N/N=c2/[nH]c(-c3ccccc3)cs2)cc1`, the minimal inhibitory concentration (MIC) in test [1] came to 100 µg/mL (≈ 191 µM); in test [2], 12.5 µg/mL (≈ 23.8 µM); in [3], 100 µg/mL (≈ 191 µM); in test [4], 25 µg/mL (≈ 47.6 µM); in test [6], 25 µg/mL (≈ 47.6 µM); in [11], 200 µg/mL (≈ 381 µM). Further, the MIC worked out at 100 µg/mL (≈ 191 µM) in test [9] and 12.5 µg/mL (≈ 23.8 µM) in test [10]. For the same compound, the result in test [16] and in test [13] was inactive.
Turning to `Fc1ccc([C@H]2N[C@@H](c3ccc(F)cc3)C3CCCC2/C3=N/N=c2/[nH]c(-c3ccccc3)cs2)cc1`, the minimum inhibitory concentration (MIC) in test [1] was 100 µg/mL (≈ 200 µM); in [2], 100 µg/mL (≈ 200 µM); in test [3], 50 µg/mL (≈ 99.9 µM); in test [4], 200 µg/mL (≈ 400 µM); in test [5], 12.5 µg/mL (≈ 25 µM); in [6], 12.5 µg/mL (≈ 25 µM). The MIC in [7] stood at 50 µg/mL (≈ 99.9 µM); in test [11], 12.5 µg/mL (≈ 25 µM); in test [9], 50 µg/mL (≈ 99.9 µM); in test [10] it was 6.25 µg/mL (≈ 12.5 µM).
Regarding `Clc1ccccc1[C@H]1N[C@@H](c2ccccc2Cl)C2CCCC1/C2=N/N=c1/[nH]c(-c2ccccc2)cs1`, the minimal inhibitory concentration (MIC) in test [1] turned out to be 25 µg/mL (≈ 46.9 µM); in test [2] it was 6.25 µg/mL (≈ 11.7 µM); in test [3], 6.25 µg/mL (≈ 11.7 µM); in [4], 100 µg/mL (≈ 187 µM); in [5], 12.5 µg/mL (≈ 23.4 µM); in test [6], 100 µg/mL (≈ 187 µM). For the same compound, the minimum inhibitory concentration (MIC) was 25 µg/mL (≈ 46.9 µM) in test [7], 100 µg/mL (≈ 187 µM) in test [11], 100 µg/mL (≈ 187 µM) in test [9] and 50 µg/mL (≈ 93.7 µM) in test [10]. Moreover, the Ratio in test [17] is reported as 1.
On to `C[C@@H]1[C@H](O)[C@@H](C)/C=C/C=C/C=C/C=C/C=C/C=C/C=C/[C@H](O[C@@H]2O[C@H](C)[C@@H](O)[C@H](N)[C@@H]2O)C[C@@H]2O[C@](O)(C[C@@H](O)C[C@@H](O)[C@H](O)CC[C@@H](O)C[C@@H](O)CC(=O)O[C@H]1C)C[C@H](O)[C@H]2C(=O)O` [AMPHOTERICIN B], for which the MIC in test [1] was determined as 25 µg/mL (≈ 27.1 µM); in test [2] it was 25 µg/mL (≈ 27.1 µM); in test [6], 50 µg/mL (≈ 54.1 µM); in test [9], 25 µg/mL (≈ 27.1 µM); in [10] it was 50 µg/mL (≈ 54.1 µM).
Consider `CN[C@@H]1[C@H](O[C@H]2[C@H](O[C@H]3[C@H](O)[C@@H](O)[C@H](N=C(N)N)[C@@H](O)[C@@H]3N=C(N)N)O[C@@H](C)[C@]2(O)C=O)O[C@@H](CO)[C@H](O)[C@H]1O` [STREPTOMYCIN], for which the MIC in test [3] was 12.5 µg/mL (≈ 21.5 µM); in [4], 50 µg/mL (≈ 86 µM); in [5], 12.5 µg/mL (≈ 21.5 µM); in test [7], 50 µg/mL (≈ 86 µM); in [11], 25 µg/mL (≈ 43 µM).
Consider `Cc1ccc([C@H]2N[C@@H](c3ccc(C)cc3)C3CCCC2/C3=N/N=c2/[nH]c(-c3ccccc3)cs2)cc1`, for which the MIC turned out to be 200 µg/mL (≈ 406 µM) in test [1]; 12.5 µg/mL (≈ 25.4 µM) in test [3]; 200 µg/mL (≈ 406 µM) in test [4]; 50 µg/mL (≈ 101 µM) in test [5]; 50 µg/mL (≈ 101 µM) in test [6]; 200 µg/mL (≈ 406 µM) in test [7]. The MIC in [11] was 200 µg/mL (≈ 406 µM); in [9], 12.5 µg/mL (≈ 25.4 µM); in test [10], 200 µg/mL (≈ 406 µM). Further, in test [18], the result was inactive.
With `Fc1ccc([C@H]2N[C@@H](c3ccc(F)cc3)C3CCCC2/C3=N/N=c2\scc(-c3ccccc3)n2-c2ccccc2)cc1`, the minimum inhibitory concentration (MIC) in test [1] came out at 12.5 µg/mL (≈ 21.7 µM); in test [3], 100 µg/mL (≈ 173 µM); in test [4], 12.5 µg/mL (≈ 21.7 µM); in test [5] it was 6.25 µg/mL (≈ 10.8 µM); in test [6] it was 100 µg/mL (≈ 173 µM); in [7], 50 µg/mL (≈ 86.7 µM). Further, the minimum inhibitory concentration (MIC) in test [11] amounted to 100 µg/mL (≈ 173 µM); in test [9], 50 µg/mL (≈ 86.7 µM); in [10], 200 µg/mL (≈ 347 µM). Further, the outcome in [18] was inactive.
